Some test systems named below: A549 NSCLC; ACHN renal; EKVX NSCLC; KM12 colon; MCF7 breast; NCI-H226 lung; NCI-H23 lung; NCI-H522 lung; SW-620 colon; U251 CNS.
Holding throughout (assay): NCI anticancer screen, dose series, 48 h

These results are taken from PubChem BioAssay (NCI).

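Where inhibition never reached the appropriate level, the endpoint shown equals the highest concentration tested. Otherwise, values were interpolated linearly from a five-concentration, 48-hour dose response in 96-well plates. GI50 = concentration required for 50% inhibition of growth. At the TGI there is no net growth.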 A value given as a limit tells only on which side of the number the result lay.

Consider `O=C(O)c1cn(C2CC2)c2cc(N3CCN(C(=O)Nc4nc(-c5ccc(Cl)cc5)cs4)CC3)c(F)cc2c1=O`, for which the GI50 in the assay with A549 NSCLC is 2.71 µM; in the assay on ACHN renal, 1.63 µM; with EKVX NSCLC, 2.97 µM; in the assay with KM12 colon it was 2.15 µM; in the assay with MCF7 breast, 2.55 µM; in the assay with NCI-H226 lung it was 3.23 µM. Further, the GI50 with NCI-H23 lung was 2.08 µM; in the assay with NCI-H522 lung it was 2.55 µM; in the assay with SW-620 colon it was 4.7 µM; in the assay on U251 CNS, 1.38 µM. Moreover, the TGI is above 100 µM in the assay with A549 NSCLC; 22 µM in the assay with ACHN renal; above 100 µM in the assay on EKVX NSCLC; above 100 µM in the assay on KM12 colon; above 100 µM in the assay on MCF7 breast; 87.7 µM in the assay with NCI-H226 lung. The TGI in the assay on NCI-H23 lung is 39.5 µM; with NCI-H522 lung, 9.14 µM; in the assay on SW-620 colon it was above 100 µM; in the assay with U251 CNS it was 16.1 µM.

Turning to `C#CCOc1c(OC)cc(C(=O)/C(C)=C/c2cccc(N=[N+]=[N-])c2)cc1OC`, the GI50 with A549 NSCLC is 0.406 µM; in the assay with ACHN renal, 0.682 µM; in the assay on EKVX NSCLC, 0.517 µM; in the assay on KM12 colon, 0.0845 µM; in the assay with MCF7 breast, 0.0447 µM; with NCI-H226 lung it was 15 µM. Further, the GI50 was 0.632 µM in the assay on NCI-H23 lung, 0.155 µM in the assay on NCI-H522 lung, 0.0503 µM in the assay on SW-620 colon and 0.0793 µM in the assay on U251 CNS. The TGI in the assay on A549 NSCLC, in the assay with ACHN renal, in the assay with EKVX NSCLC, in the assay on KM12 colon, in the assay with MCF7 breast and in the assay on NCI-H226 lung was above 100 µM throughout. The TGI is above 100 µM in the assay with NCI-H23 lung, 0.8 µM in the assay on NCI-H522 lung, above 100 µM in the assay on SW-620 colon and above 100 µM in the assay with U251 CNS.

Take `O=C1C=CC(=O)N1CCCCCCCCCCN1C(=O)C=CC1=O`: the GI50 is 18.2 µM in the assay on A549 NSCLC; 4.85 µM with ACHN renal; 19.4 µM in the assay on EKVX NSCLC; 15.4 µM in the assay with KM12 colon; 5.62 µM in the assay on MCF7 breast; 17.1 µM in the assay on NCI-H226 lung. The GI50 in the assay on NCI-H23 lung is 15.6 µM; with NCI-H522 lung, 1.6 µM; with SW-620 colon it was 2.42 µM; with U251 CNS it was 17 µM. Further, the TGI was 41.5 µM with A549 NSCLC; 16.8 µM in the assay on ACHN renal; 39.2 µM in the assay on EKVX NSCLC; 30.3 µM with KM12 colon; 24.2 µM in the assay with MCF7 breast; 34.4 µM in the assay with NCI-H226 lung. Further, the TGI is 31.6 µM in the assay on NCI-H23 lung, 3.41 µM in the assay with NCI-H522 lung, 6.09 µM in the assay on SW-620 colon and 37.8 µM with U251 CNS.

`COc1ccc2oc(-c3ccc(Cl)cc3)c(N3CCN(C)CC3)c2c1`: the GI50 in the assay on A549 NSCLC was 1.83 µM; with ACHN renal it was 1.73 µM; with EKVX NSCLC, 0.603 µM; in the assay on KM12 colon it was 1.64 µM; in the assay with MCF7 breast, 1.7 µM; in the assay on NCI-H226 lung it was 3.16 µM. In addition, the GI50 is 2.88 µM in the assay with NCI-H23 lung, 1.9 µM in the assay on NCI-H522 lung, 1.82 µM with SW-620 colon and 1.64 µM in the assay on U251 CNS. Further, the TGI in the assay with A549 NSCLC was found to be 3.94 µM; in the assay with ACHN renal it was 3.7 µM; with EKVX NSCLC, 2.47 µM; in the assay with KM12 colon it was 3.27 µM; in the assay with MCF7 breast, 3.5 µM; with NCI-H226 lung, 14.5 µM. The TGI in the assay with NCI-H23 lung is 8.99 µM; with NCI-H522 lung, 3.91 µM; with SW-620 colon, 3.48 µM; in the assay on U251 CNS, 3.14 µM.

Consider `CC(=O)/C=C/c1ccc(N(C)Cc2ccc(C(C)(C)C)cc2)cc1`, for which the GI50 was 156 µM with A549 NSCLC; 137 µM in the assay with ACHN renal; 84.4 µM in the assay on EKVX NSCLC; 115 µM with KM12 colon; 45.5 µM in the assay with MCF7 breast; 149 µM in the assay with NCI-H226 lung. For the same compound, the GI50 with NCI-H23 lung is 87.4 µM; in the assay on NCI-H522 lung it was 128 µM; in the assay on SW-620 colon it was 156 µM; with U251 CNS, 125 µM. Also, the TGI in the assay on A549 NSCLC was determined as 788 µM; with ACHN renal, 271 µM; in the assay on EKVX NSCLC, 392 µM; with KM12 colon, 317 µM; with MCF7 breast it was 318 µM; in the assay on NCI-H226 lung, 315 µM. The TGI with NCI-H23 lung was 550 µM; with NCI-H522 lung, 310 µM; in the assay on SW-620 colon, 441 µM; in the assay on U251 CNS, 268 µM.

As to `CCN(CC)CCCC(C)Nc1ccnc2cc(Cl)c(SCc3ccccc3)cc12` (centres undefined), the GI50 was 1.85 µM in the assay on A549 NSCLC; 1.3 µM with ACHN renal; 1.93 µM with EKVX NSCLC; 1.43 µM in the assay with KM12 colon; 0.506 µM in the assay on MCF7 breast; 2.71 µM with NCI-H226 lung. In addition, the GI50 with NCI-H23 lung is 1.55 µM; in the assay with NCI-H522 lung it was 0.58 µM; in the assay on SW-620 colon, 0.928 µM; in the assay on U251 CNS it was 1.08 µM. Besides, the TGI with A549 NSCLC was 3.59 µM; with ACHN renal it was 2.73 µM; in the assay on EKVX NSCLC, 6.75 µM; in the assay on KM12 colon, 3.96 µM; in the assay on MCF7 breast, 1.72 µM; in the assay on NCI-H226 lung, 8.48 µM. The TGI stood at 3.57 µM with NCI-H23 lung, 2.01 µM in the assay with NCI-H522 lung, 2.92 µM in the assay on SW-620 colon and 2.39 µM with U251 CNS.

For `CSc1ccc2c(c1)C(=O)c1c-2n(CCCN=[N+]=[N-])c(=O)c2cc([N+](=O)[O-])ccc12`, the GI50 in the assay with A549 NSCLC was 3.25 µM; with ACHN renal, 0.528 µM; with EKVX NSCLC, above 100 µM; with MCF7 breast, 4.09 µM; in the assay on NCI-H226 lung, 8.74 µM; with NCI-H23 lung, 3.48 µM. Moreover, the GI50 is 6.01 µM in the assay with NCI-H522 lung, 1.72 µM in the assay with SW-620 colon and 1.1 µM with U251 CNS. Also, the TGI with A549 NSCLC, in the assay on ACHN renal, with EKVX NSCLC, in the assay with KM12 colon, in the assay with MCF7 breast and with NCI-H226 lung was above 100 µM each time. Also, the TGI with NCI-H23 lung, in the assay on NCI-H522 lung, in the assay with SW-620 colon and in the assay on U251 CNS was above 100 µM each time.
